The values that follow come from patent US20120015882A1, “COMPOSITION FOR REGULATING AUTONOMIC NERVOUS ACTIVITY AND METHOD FOR REGULATING AUTONOMIC NERVE” (priority 2009, published 2012).

For test [1], the system named is parasympathetic (vagus) nerve controlling the stomach. As to the kind of experiment: Action potential of the parasympathetic (vagus) nerve controlling the stomach (GVNA) after oral administration. The class given is in vivo, rat. The note with it: rats, 5 to 60 minutes after administration, ANOVA. As to the method:
Water or 0.045 mg/kg weight or 0.12 mg/kg weight of Tyr-Pro was administered to rats (n=3), and the action potential of the parasympathetic (vagus) nerve controlling the stomach was measured over time. […] Values for 5 to 60 minutes after the administration were treated as a group, and a significance test with respect to the water-administered control group was conducted by the analysis of variance (ANOVA).
Male Wister rats (approximately […]) (n=3) with a body weight of approximately 300 g were used, and they took food and water ad lib. To examine the activity of the autonomic nerve, after a 3-hour fast, a polyethylene tube for oral administration was inserted into the oral cavity of each rat under urethane anesthesia in the middle of a light period. Thereafter, a sympathetic nerve controlling the adrenal gland, a parasympathetic (vagus) nerve controlling the stomach, or sympathetic nerve in a cutaneous artery of the tail was hooked to a silver electrode, and the electrical activity of the nerve was determined. […] In a period where the activities of these nerves were stabilized, 1 ml of each sample was orally administered through a polyethylene tube, and the changes in activities of these nerves were measured. […]

Test [2] concerns sympathetic nerve controlling the adrenal gland. Description: Action potential of the sympathetic nerve controlling the adrenal gland (ASNA) after oral administration. The class given is in vivo, rat. Conditions: rats, 0.012 mg/kg weight, 5 to 60 minutes after administration, ANOVA. As to the method:
[…] […] Values for 5 to 60 minutes after the administration were treated as a group, and a significance test with respect to the water-administered control group was conducted by the analysis of variance (ANOVA).
Male Wister rats (approximately […]) (n=3) with a body weight of approximately 300 g were used, and they took food and water ad lib. To examine the activity of the autonomic nerve, after a 3-hour fast, a polyethylene tube for oral administration was inserted into the oral cavity of each rat under urethane anesthesia in the middle of a light period. Thereafter, a sympathetic nerve controlling the adrenal gland, a parasympathetic (vagus) nerve controlling the stomach, or sympathetic nerve in a cutaneous artery of the tail was hooked to a silver electrode, and the electrical activity of the nerve was determined. From the start of the operation to the completion of the determination, the tube was kept inserted in the trachea to secure the airway, and the body temperature (rectal temperature of the rat) was kept at 35.0±0.5° C. by using an incubator. In a period where the activities of these nerves were stabilized, 1 ml of each sample was orally administered through a polyethylene tube, and the changes in activities of these nerves were measured. […]

Test [3] deals with sympathetic nerve in a cutaneous artery of the tail. As to the kind of experiment: Action potential of the sympathetic nerve in the cutaneous artery of the tail (CASNA) after oral administration. Conditions: rats, 0.12 mg/kg weight, 5 to 60 minutes after administration. The class given is in vivo, rat.
Experimental: Water, 0.12 mg/kg weight of Tyr-Pro, or 4.2 mg/kg weight of a casein hydrolysate was administered to rats (n=3), and the action potential of the sympathetic nerve in the cutaneous artery of the tail was measured over time. […] Values for 5 to 60 minutes after the administration were treated as a group, and a significance test with respect to the water-administered control group was conducted by the analysis of variance (ANOVA).
Male Wister rats (approximately 0-week old) (n=3) with a body weight of approximately 300 g were used, and they took food and water ad lib. To examine the activity of the autonomic nerve, after a 3-hour fast, a polyethylene tube for oral administration was inserted into the oral cavity of each rat under urethane anesthesia in the middle of a light period. Thereafter, a sympathetic nerve controlling the adrenal gland, a parasympathetic (vagus) nerve controlling the stomach, or sympathetic nerve in a cutaneous artery of the tail was hooked to a silver electrode, and the electrical activity of the nerve was determined. […] In a period where the activities of these nerves were stabilized, 1 ml of each sample was orally administered through a polyethylene tube, and the changes in activities of these nerves were measured. […]
Test [4] relates to gastric emptying function. Description: Gastric emptying function test (phenol red dye discharge). The format is in vivo, rat. The note with it: SD rats, oral 0.1 mg/kg weight, dye 30 minutes later, stomach extirpated 20 minutes after dye; mean±standard error; control 78.8±2.41%. As to the method: Water or 0.1 mg/kg weight of Tyr-Pro was administered to rats (n=10), and 30 minutes later a dye (phenol red) was administered. After additional 20 minutes, each stomach was extirpated, and the dye remaining in the stomach was determined. A significance test with respect to the water-administered control group was conducted by an unpaired Student's t test.
Male Sprague-Dawley (SD) rats (6-week old) (n=10) were used, and they took food and water ad lib. After preliminary feeding for one week or longer, the rats were subjected to the experiment. Prior to the test, all the rats were fasted in a fasting cage for 24 hours. During the period, the rats took water ad lib. In the test, a solvent (distilled water for injection) and 0.1 mg/kg weight of Tyr-Pro were orally administered to the rats, and, 30 minutes later, a 0.05% dye (phenol red) solution (containing 1.5% of carboxylmethyl cellulose) was orally administered at a volume of 1.5 ml/rat. Each stomach was extirpated under ether anesthesia 20 minutes after the administration of the dye without delay. […] The supernatant was centrifuged, and then measured for absorbance at 560 nm. The gastric emptying function (GE: gastric emptying) was calculated in accordance with the following formula.
GE(%)=(1−absorbance of solution recovered from stomachs of test-substance-administered group/absorbance at gastric emptying of 0%)×100 […]

Test [5] relates to scopolamine-induced amnesia. As to the kind of experiment: Scopolamine-induced amnesia, Y-shaped maze test (spontaneous alternation behavior). The format is in vivo. Conditions: ddY mice, oral 1.5 mg/kg weight to 15 mg/kg weight, 60 minutes before Y-shaped maze; scopolamine 1 mg/kg s.c.
Experimental: A significance test on the groups was conducted by a Dunnett's multiple comparison test.
Male ddY mice (approximately 7-week old) (n=15) were used, and they took food and water ad lib.
The test substances were administered to the mice once orally 60 minutes before the execution of a Y-shaped maze test for evaluation of spontaneous alternation behavior. Further, 30 minutes before the execution of the Y-shaped maze test, 1 mg/kg weight of scopolamine was subcutaneously administered on the backs, of the mice in order to induce dysmnesia and/or cognitive impairment in the mice. […] The sequence of the arms into which each of the mice entered was recorded. The number of entries into the arms of each mouse during the measurement time was counted to be the total number of entries. […] The percentage of change in spontaneous alternation behavior was calculated by dividing the number of spontaneous alternation behavior by a number obtained by subtracting 2 from the total number of entries and multiplying a resultant number by 100. […] The measured values were expressed in the form of mean±standard error for each group. […]
The test system of test [6] is time of stay on the open arms. As to the kind of experiment: Elevated plus-maze test (anti-anxiety effect). The format is in vivo. Conditions: ddY mice, oral 0.1 mg/kg weight to 100 mg/kg weight, test 30 minutes after administration. On the procedure:
Water, 0.1 mg/kg weight to 100 mg/kg weight of Tyr-Pro, or 10 mg/kg to 1000 mg/kg weight of a casein hydrolysate was administered to mice (n=12), and the time for which the mice stayed on open arms was measured (Example 4). […] The data were expressed in the form of mean±standard error. A significance test with respect to the water-administered control group was conducted by an unpaired Student's t test, and *, **, and *** indicate that P<0.05, P<0.01, and P<0.001, respectively.
Male ddY mice (approximately 6-week old) (n=12) were used. After preliminary feeding, Tyr-Pro (0.1 mg/kg weight, 1.0 mg/kg weight, 10 mg/kg weight, 30 mg/kg weight, or 100 mg/kg weight) or a casein hydrolysate (10 mg/kg weight, 100 mg/kg weight, or 1000 mg/kg weight) was administered once orally. The anti-anxiety effect was examined by an elevated plus-maze test 30 minutes after the administration. The casein hydrolysate was the same as that in Example 1. […] The behaviors thereof were observed, and the accumulative time of stay on the open arms was measured. From the measured value, the percentage of the accumulative time of stay on the open arms in a 5-minute test was found, and used as an index of the anti-anxiety effect. […] The measured values were expressed in the form of mean±standard error for each group and a comparison with the control group was conducted by using an unpaired Student's t test.

Test [7] concerns pain. The note with it: rat, intraperitoneal; cited from earlier work.
Test [8] concerns opioid receptors. The note with it: cited from earlier work.
Test [9] relates to blood pressure. Conditions: orally administered; cited from earlier work.
Test [10] concerns autonomic nerve. Conditions: intravenous administration; cited from earlier work.

For the compound Tyr-Pro, the “parasympathetic nervous activity in the stomach in comparison with the water-administered group” value in test [1] (0.045 mg/kg weight) and in test [1] (0.12 mg/kg weight) was “significantly increased” in each case. Further, the “sympathetic nervous activity in the adrenal gland in comparison with the water-administered group” value in test [2] is on record as “significantly decreased”. The “sympathetic nervous activity in the cutaneous artery in comparison with the water-administered group” value in [3] was “a tendency was observed that the sympathetic nervous activity in the cutaneous artery was lowered”. Moreover, the “dye discharge percentage (gastric emptying, GE)” value in test [4] is reported as 85.4±2.01%. Further, the “effect of preventing amnesia” value in test [5] is “an effect of preventing amnesia”. The anti-anxiety effect entry in test [6] is on record as “exhibited an anti-anxiety effect”. Besides, the analgesic effect entry in [7] is “exhibit an analgesic effect”. Further, the “binding capability to opioid receptors” value in test [8] is listed as “lacks binding capability to opioid receptors”. Also, the “effect of lowering the blood pressure” value in test [9] is listed as “effect of lowering the blood pressure”.

With `NCCC(=O)N[C@@H](Cc1cnc[nH]1)C(=O)O` [carnosine], the “effect of controlling the autonomic nerve” value in test [10] is recorded as “an effect of controlling the autonomic nerve”.
